US10820823B2, “Evaluation of inhibitory circuit and use thereof” (INTER-UNIVERSITY RESEARCH INSTITUTE C[…] INSTITUTES OF …, priority 2015, dated 2020)

Assays:
[1] = system: inhibitory circuit (GABA-A early inhibition); test: Inhibition rate (prepulse attenuation) of auditory change-related brain activity by magnetoencephalography, before and after drug administration; type: in vivo, human; settings: for effect of drug on inhibition: 5 mg single oral administration
Description: In the present embodiment, an action of inhibitory circuits of 13 humans was evaluated using an excitatory circuit for a change response to a sound pressure change in an auditory system. As for the change response, when a sudden slight increase in sound pressure (10 dB) is generated in a background sound in which a short click sound (70 dB) of 1 ms is continuously generated at a frequency of 100 Hz, the human brain reacts thereto with very high sensitivity and a remarkable brain response is triggered.
The evaluation system included a stimulus output unit and a brain activity measurement unit.
Full-head measurement with the cerebral magnetic field measurement unit was performed using a magnetoencephalograph (306 channel magnetoencephalograph (Vector View, Neuromag, Helsinki, Finland)).
Three kinds of stimuli, namely, the test stimulus, the preceding stimulus, and the test+preceding stimulus were sequentially applied to the subject at regular intervals from the stimulus output irnit through an insert earphone from the start of the test, and brain activity induced by the activation of the excitatory circuit at this time was measured as a cerebral magnetic field. […] A predetermined number of trials could be designated in the cerebral magnetic field measurement unit, addition was performed automatically, and an attenuation rate (inhibition rate) was obtained from the amplitude of the addition waveform.
Effect of diazepam (5 mg single oral administration) on inhibition was examined by comparing the inhibition rates before and after the administration of the drug to two subjects of different types by the same recording procedure as in first embodiment. The amplitude of the response was taken between vertices of a component of 50 ms and a component of 100 ms (black triangles).

[2] = system: GABA-A early inhibition due to basket cells; settings: slice specimens; cited from earlier work

## CN1C(=O)CN=C(c2ccccc2)c2cc(Cl)ccc21 [diazepam]
[1]; Subject 1 (strong inhibition before administration), diazepam 5 mg single oral administration, 1 hour after administration
  change of inhibition after the administration: little change
[1]; Subject 1
  effect of drug on inhibition: small effect
[1]; Subject 2 (weak early inhibition before administration), diazepam 5 mg single oral administration, 1 hour after administration
  inhibition rate after the administration: 45%
[1]; Subject 2
  effect of drug on inhibition: strong effect
[2]
  effect on GABA-A early inhibition due to basket cells: enhances
